Source: patent US20220323414A1, “FARNESOID X RECEPTOR AGONISTS FOR THE TREATMENT OF DISEASE” (Metacrine, Inc., priority 2018, published 2022)

What was measured:
[1] = NASH clinical trial Part 1: plasma levels of Compound 1; type: in vivo, human; settings: 50 mg, healthy and NASH patients
Experimental: (§1) Part 1: An open-label, uncontrolled, single-center study assessing 50 mg of Compound 1 treatment for 4 weeks; 10 subjects were enrolled.
Pharmacokinetic Assessments: Blood samples will be taken according to the PK sampling schedule.
(§2) Length of Study: Subjects enrolled in Part 1 participated in the study for approximately 12 weeks, which included a 4-week screening period, 4 weeks (28 days) for the treatment period, and 4 weeks for follow-up. Subjects enrolled in Part 2 will participate in the study for approximately 20 weeks, which includes an approximate 4-week screening period, 12 weeks (84 days) for the treatment period, and 4 weeks for follow-up. • Study Treatment (Part 1): Subjects enrolled in Part 1 received Compound 1 50 mg for 28 consecutive days. • Study Treatment (Part 2): Subjects enrolled in Part 2 will receive Compound 1 (80 mg or 50 mg) or matching placebo for 84 consecutive days.

[2] = tested on: subjects with NASH (liver fat content); test: NASH clinical trial Part 1: hepatic fat; type: in vivo, human; settings: NASH patients, 50 mg daily, after 28 days
Experimental: Purpose: The purposes of this study was to evaluate the safety and tolerability of Compound 1 monotherapy in subjects with NASH, to characterize the pharmacokinetics (PK) of Compound 1, to characterize the pharmacodynamics (PD) of Compound 1 dose and response, to estimate the activity of Compound 1 using Magnetic Resonance Imaging-Proton Density Fat Fraction (MRI-PDFF) and NASH fibrosis biomarkers.
as §1
Length of Study: Subjects enrolled in Part 1 participated in the study for approximately 12 weeks, which included a 4-week screening period, 4 weeks (28 days) for the treatment period, and 4 weeks for follow-up. […]
The 10 patients with NASH who enrolled in the study received 50 mg doses of Compound 1 daily for a period of 28 days as described above. Hepatic fat levels in each patient were assessed prior to treatment with Compound 1, after 28 days of treatment with Compound 1, then again 28 days after cessation of treatment with Compound 1.

[3] = tested on: total bile acids; test: Phase 1 MAD pharmacodynamics: total bile acids; type: in vivo, human; settings: healthy subjects, 50-150 mg/day cohorts, day 14
Experimental: (§3) PD: Plasma levels of 7-alpha-hydroxy-4-cholesten-3-one (C4), plasma levels of fibroblast growth factor 19 (FGF19), and levels of total bile acids (for Part B only).
(§4) 6 groups of 10 healthy male subjects each to investigate the safety, tolerability, PK, and PD of multiple oral doses of Compound 1. Subjects in all groups received ascending multiple oral doses of Compound 1 or matching placebo once daily on Days 1 to 14. Dosing was conducted under fasted conditions on each dosing day. Patients in each group received multiple oral doses of 20, 40, 50, 80, 100, and 150 mg of Compound 1 once daily on days 1 to 14 of the study. Eight members of each group received Compound 1, and two members of each group received placebo.

[4] = tested on: 7-alpha-hydroxy-4-cholesten-3-one (C4); test: Phase 1 MAD pharmacodynamics: plasma C4; type: in vivo, human; settings: healthy subjects
Experimental: as §3, §4

[5] = tested on: gamma-glutamyl transferase (GGT); test: NASH clinical trial Part 1: GGT; type: in vivo, human; settings: NASH patients, 50 mg daily
Experimental: as §1, §2
The resulting percent changes from baseline for these biomarkers can be seen in FIG. 6A, FIG. 6B.

[6] = molecular target: T1, hFXR (Homo sapiens, UniProt Q96RI1); test: In Vitro FXR Assay (TK); type: cell-based; settings: transfected CV-1 cells, luminescence, 18 hrs
T1 construct: expressed in transfected cells; host or cells: CV-1 cells
T1 sequence (Q96RI1 1-486): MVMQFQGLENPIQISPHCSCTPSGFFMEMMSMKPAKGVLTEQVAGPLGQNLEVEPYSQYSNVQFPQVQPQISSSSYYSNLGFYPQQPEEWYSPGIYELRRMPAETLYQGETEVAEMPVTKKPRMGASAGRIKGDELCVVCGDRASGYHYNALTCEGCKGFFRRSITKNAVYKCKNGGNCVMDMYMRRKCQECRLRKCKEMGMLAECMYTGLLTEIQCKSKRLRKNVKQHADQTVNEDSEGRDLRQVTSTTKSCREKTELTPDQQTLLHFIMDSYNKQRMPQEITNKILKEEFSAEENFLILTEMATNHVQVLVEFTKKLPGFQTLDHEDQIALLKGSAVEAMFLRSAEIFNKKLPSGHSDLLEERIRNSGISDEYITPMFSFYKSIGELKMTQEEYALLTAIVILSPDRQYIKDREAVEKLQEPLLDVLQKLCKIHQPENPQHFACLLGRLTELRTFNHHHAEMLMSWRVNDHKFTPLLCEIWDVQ
T1 sequence (P19793 1-462 partner): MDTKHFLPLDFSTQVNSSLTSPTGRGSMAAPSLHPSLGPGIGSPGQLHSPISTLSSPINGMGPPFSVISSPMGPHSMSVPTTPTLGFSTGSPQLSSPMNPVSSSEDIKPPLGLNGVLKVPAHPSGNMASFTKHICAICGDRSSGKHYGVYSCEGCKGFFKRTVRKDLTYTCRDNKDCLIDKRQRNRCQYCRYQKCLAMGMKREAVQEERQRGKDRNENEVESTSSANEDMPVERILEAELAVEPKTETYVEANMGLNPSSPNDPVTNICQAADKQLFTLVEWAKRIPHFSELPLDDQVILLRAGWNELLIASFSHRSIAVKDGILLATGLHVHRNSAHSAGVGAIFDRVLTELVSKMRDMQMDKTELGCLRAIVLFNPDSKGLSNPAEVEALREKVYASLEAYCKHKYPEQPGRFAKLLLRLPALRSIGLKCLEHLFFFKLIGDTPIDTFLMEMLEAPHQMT
Experimental: CV-1 cells were seeded at a density of 2,000,000 cells in a T175 flask with DMEM+10% charcoal double-stripped FBS and incubated at 37° C. in 5% CO2 for 18 h (O/N).
After 18 h of incubation, the medium in the T175 flask was changed with fresh DMEM+10% charcoal super-stripped serum. In a polypropylene tube, 2500 μL OptiMEM (Life Technologies, Cat #31985-062) was combined with expression plasmids for hFXR, hRXR, TK-ECRE-luc and pCMX-YFP. The tube was then briefly vortexed and incubated at room temperature for 5 minutes. Transfection reagent (X-tremeGENE HP from Roche, Cat #06 366 236 001) was added to the OptiMEM/plasmid mixture vortexed and incubated at room temperature for 20 minutes. Following incubation, the transfection reagent/DNA mixture complex was added to cells in the T175 flask and the cells were incubated at 37° C. in 5% CO2 for 18 h (O/N).
Compounds were serially diluted in DMSO and added to transfected CV-1 cells. The cells were then incubated for 18 hrs. The next day cells were lysed and examined for luminescence.

[7] = tested on: fibroblast growth factor 19 (FGF19); test: Phase 1 MAD pharmacodynamics: plasma FGF19; type: in vivo, human; settings: healthy subjects, multiple doses 20 mg to 150 mg
Experimental: as §3, §4

[8] = tested on: alanine aminotransferase (ALT); test: NASH clinical trial Part 1: ALT; type: in vivo, human; settings: NASH patients, 50 mg daily
Experimental: as §1, §2
Levels of alanine aminotransferase (ALT) and gamma-glutamyl transferase (GGT) were assessed in subjects prior to administration of Compound 1, after 14 days of dosing of Compound 1, and after 28 days of dosing of Compound 1. The resulting percent changes from baseline for these biomarkers can be seen in FIG. 6A, FIG. 6B.

[9] = Phase 1 multiple ascending dose PK in healthy subjects (plasma Compound 1 concentrations); type: in vivo, human
Source text: Purpose: The purposes of this study was to assess the safety and tolerability of single and multiple oral doses of Compound 1, to characterize the pharmacokinetics (PK) of single and multiple oral doses of Compound 1, to characterize the pharmacodynamics (PD) of single and multiple oral doses of Compound 1, and to identify the recommended multiple oral dose level(s) of Compound 1 for future studies in patients. The study was a first-in-human, 2-part, single-center Phase 1, randomized, double-blind, placebo-controlled study in healthy male subjects.
PK: Plasma Compound 1 concentrations, Plasma PK parameters.
as §4

[10] = tested on: SCID mice with CD4+CD45RB high T-cell transfer colitis; test: Adoptive T-cell transfer colitis mouse model; type: in vivo; settings: for reduction of histopathology sum score: vehicle sum score 10
Experimental: Adoptive T-cell transfer colitis model is accepted as a relevant mouse model for human inflammatory bowel disease (IBD). To induce colitis in this model, the CD4 T-lymphocyte population is isolated from the spleens of donor mice. Subsequently, a subpopulation of CD4+CD45RB high T-cells is purified by cell sorting using flow cytometry. The purified CD4+CD45RB high T-cells are injected into the peritoneal cavity of the recipient severe combined immunodeficiency (SCID) mice. Colitis develops approximately three to six weeks after T-cell transfer, which is monitored by loss of body weight, inconsistent stool or bloody diarrhea. Testing of combinations of an FXR agonist and an additional therapeutic agent described herein is initiated at the same time of injecting purified CD4+CD45RBhigh T-cells to the recipient SCID mice. Alternatively, the combinations of an FXR agonist and an additional therapeutic agent described herein are administered two or three weeks post T-cell transfer, when colitis has already developed in the model. During the period of administering the combinations of an FXR agonist and an additional therapeutic agent described herein to mice, the therapeutic effects may be monitored by observations on body weights, stool consistency, or rectal bleeding. After euthanasia, the disease development and effects of the compounds are further quantified by measuring colon weight and length, and colon histology by H&E staining for inflammation and structural changes in mucosa, and protein and RNA expression of genes related to the disease.

COc1ccc([C@H]2CC[C@H](CN(c3cccc(-c4cnn(C5CC5)c4)c3)C(=O)[C@H]3CC[C@H](O)CC3)CC2)cc1C [Compound 1]
plasma levels over the 24 hour period after dosing [1]: remained nearly constant | average reduction in fatty liver deposits from baseline [2]: 20.3% | change in bile acid levels [3]: decrease in bile acid levels | dose at which the decrease in C4 levels was notable ([4]; Day 14): ≥ 50 mg | mean C4 levels at 24 hours post dose ([4]; Day 14): remained decreased | mean C4 levels versus placebo ([4]; multiple doses 20 mg to 150 mg, Day 14, most dose levels): lower than for placebo treatment | GGT levels decrease [5]: 23.2% | GGT decrease from baseline ([5]; day 28): 36.3% | EC50 [6]: ≤ 250 nM | mean FGF19 levels [7]: increased | time of maximum increase in mean FGF19 levels [7]: 6 to 10 hours post dose | ALT decrease from baseline ([8]; day 14): 7.9% | ALT below baseline ([8]; day 28): 16.5% | plasma levels at 24 hours following dosing ([9]; 14 days once daily oral dosing): high levels in the plasma at 24 hours following dosing | plasma drug exposure with dose ([9]; 14 days once daily oral, 20 mg to 150 mg): increase in plasma drug exposure with dose

COc1ncc(-c2cccc(N(C[C@H]3CC[C@H](c4ccc(OC)c(C)c4)CC3)C(=O)[C@H]3CC[C@H](O)CC3)c2)s1 [Compound 2, (1R,4R)-4-hydroxy-N-(((1R,4R)-4-(4-methoxy-3-methylphenyl)cyclohexyl)methyl)-N-(3-(2-methoxythiazol-5-yl)phenyl)cyclohexane-1-carboxamide]
reduction in colon W/L as compared to vehicle ([10]; 10 mg/kg): 41% | reduction of histopathology sum score ([10]; 10 mg/kg): 71% | reduction in colon W/L as compared to vehicle ([10]; 30 mg/kg): 38% | reduction of histopathology sum score ([10]; 30 mg/kg): 74% | reduction in body weight from baseline caused by T-cell transfer ([10]; 12% body weight reduction after CD4+CD45RBhi T-cell transfer, Compound 2 at 10 mg/kg): reversed | efficacy in reducing colitis relative to comparators ([10]; adoptive T-cell transfer model): efficacy superior to CsA and comparable to anti-IL-12/23 treatment
